Assay results reported in article PMC7985297 (Communications Biology, 2021).
Where “and” joins values, the source holds several entries; their conditions need not be identical. Equal values may be shown once.

Legend:
full-length AR = target: T1, full-length AR (Homo sapiens, UniProt P10275, T878A); experiment: PSA(6.1 kb)-luciferase AR-driven reporter assay in LNCaP cells; type: cell-based; details: for fractional response (Fig. 5g): monotherapy or with 5 µM ATRA
T1 construct: Transcriptional activity of full-length AR was assessed in LNCaP cells; endogenous in cells; host or cells: LNCaP
T1 sequence (P10275 1-920 T878A): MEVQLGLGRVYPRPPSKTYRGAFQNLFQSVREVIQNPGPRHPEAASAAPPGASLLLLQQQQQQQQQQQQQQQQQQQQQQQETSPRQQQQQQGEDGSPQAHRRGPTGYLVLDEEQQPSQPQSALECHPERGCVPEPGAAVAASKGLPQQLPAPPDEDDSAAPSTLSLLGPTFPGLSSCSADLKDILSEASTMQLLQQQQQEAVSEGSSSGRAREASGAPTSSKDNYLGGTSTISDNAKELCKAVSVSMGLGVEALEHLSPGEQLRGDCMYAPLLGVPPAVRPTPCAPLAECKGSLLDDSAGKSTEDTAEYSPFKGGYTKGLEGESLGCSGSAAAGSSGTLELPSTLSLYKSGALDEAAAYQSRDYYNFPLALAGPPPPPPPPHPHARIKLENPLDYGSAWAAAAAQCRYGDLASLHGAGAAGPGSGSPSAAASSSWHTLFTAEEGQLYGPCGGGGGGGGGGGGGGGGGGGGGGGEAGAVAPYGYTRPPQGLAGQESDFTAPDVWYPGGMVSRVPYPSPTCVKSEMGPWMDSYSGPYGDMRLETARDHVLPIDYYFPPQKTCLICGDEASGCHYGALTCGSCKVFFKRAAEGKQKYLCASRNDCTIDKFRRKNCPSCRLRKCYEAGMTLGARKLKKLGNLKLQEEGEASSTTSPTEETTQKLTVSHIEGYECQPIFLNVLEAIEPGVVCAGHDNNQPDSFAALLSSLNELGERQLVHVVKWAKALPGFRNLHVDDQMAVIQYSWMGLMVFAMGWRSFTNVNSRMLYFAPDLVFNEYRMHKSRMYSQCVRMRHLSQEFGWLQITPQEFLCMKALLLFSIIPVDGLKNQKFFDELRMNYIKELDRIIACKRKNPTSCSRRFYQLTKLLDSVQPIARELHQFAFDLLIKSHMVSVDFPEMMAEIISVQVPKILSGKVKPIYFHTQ

[1] = target: T2, human AR NTD (AR1–558) fused to Gal4DBD (Gal4-ARN) (Homo sapiens, UniProt P10275); experiment: AR NTD transactivation assay (Gal4-ARN) in LNCaP cells; type: cell-based; details: EPI-002 25 μM, juglone 20 μM, ATRA 10 μM, 24 h
T2 construct: construct encoding the human AR1–558 of the NTD fused to a Gal4DBD (Gal4-ARN); expressed in transfected cells; host or cells: LNCaP
T2 sequence (P10275 1-558): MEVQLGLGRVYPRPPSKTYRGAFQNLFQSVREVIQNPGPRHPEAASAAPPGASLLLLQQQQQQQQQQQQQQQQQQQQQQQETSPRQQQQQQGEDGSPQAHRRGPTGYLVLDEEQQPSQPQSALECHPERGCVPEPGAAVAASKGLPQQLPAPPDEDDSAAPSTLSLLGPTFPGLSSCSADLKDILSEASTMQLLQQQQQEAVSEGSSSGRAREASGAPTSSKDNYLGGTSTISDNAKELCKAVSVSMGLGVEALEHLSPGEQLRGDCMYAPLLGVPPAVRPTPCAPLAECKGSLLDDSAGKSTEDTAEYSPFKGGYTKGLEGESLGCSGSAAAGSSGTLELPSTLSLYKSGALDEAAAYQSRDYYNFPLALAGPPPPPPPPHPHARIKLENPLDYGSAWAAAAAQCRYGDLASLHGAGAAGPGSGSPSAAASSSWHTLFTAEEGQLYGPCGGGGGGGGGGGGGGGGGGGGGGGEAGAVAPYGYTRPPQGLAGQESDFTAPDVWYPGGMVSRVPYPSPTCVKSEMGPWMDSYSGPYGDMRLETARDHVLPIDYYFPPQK
Description: The remaining putative Pin1-binding sites are within the intrinsically disordered AR NTD that contains transcription activation units, Tau-1 and Tau-5, to mediate androgen-dependent and androgen-independent transactivation, respectively[5],[30]. The loss of AR-LBD shifts the location of transcriptional activity from Tau-1 with androgen, to Tau-5 in the absence of LBD[30].
Error bars show the mean ± s.e.m. *P < 0.05, **P < 0.01, ***P < 0.001; ns not significant.

LN95 cells [2] = experiment: BrdU incorporation assay, LN95; type: cell-based, human; details: ENZ 10 µM, EPI-002 25 µM, JUG 20 µM, ATRA 10 µM
Description: (§1) Cells were treated with the inhibitors and stimulated with 1 nM of R1881 (+) or vehicle (−) for 24 to 72 h. Each data point represents the average from an independent experiment where the error bars show the mean ± s.e.m.
(§2) BrdU incorporation was determined with the colorimetric BrdU ELISA kit (Roche Diagnostics), according to the manufacturer’s protocol. In brief, cells were seeded in 96-well plates (LNCaP, 5000/well; LN95, 8000/well; PC-3 and DU145, 4000/wells) in media with reduced serum (0.5–1%). On the following day, cells were pre-treated with test compounds for 1 h and then incubated with 0.1 nM of R1881. After the indicated incubation times, cells were labeled with 10 μM of BrdU for 2 h and then fixed for the assay.

PC-3 cells = experiment: BrdU incorporation assay, PC-3; type: cell-based, human; details: − R1881; ENZ 10 µM, EPI-002 25 µM, JUG 20 µM, ATRA 10 µM
Description: as §1, §2

DU145 cells = experiment: BrdU incorporation assay, DU145; type: cell-based, human; details: − R1881; ENZ 10 µM, EPI-002 25 µM, JUG 20 µM, ATRA 10 µM
Description: as §1, §2

LN95 cells [3] = experiment: Colony formation of LN95 cells; type: cell-based, human; details: LN95, ATRA 5 or 10 µM, EPI-002 25 µM, treated 24 hours then re-plated
Description: page 5: Supplementary Figure 5 a b […] (a) Representative images of colonies from LN95 cells after […] EPI-002. After treating with compounds for 24 hours, the media was removed, and 500 -1,000 cells were re-plated in 6-well plates. Colonies were fixed with 4% paraformaldehyde, stained with a 0.1% crystal violet solution, and then imaged. […]

[4] = led to excessive pill burden; cited from earlier work
LN95 cells [5] = experiment: Senescence-associated β-galactosidase staining, LN95; details: LN95, ATRA 10 μM, EPI-002 25 μM, 3 days
Description: β-galactosidase activity at suboptimal pH (6.0) was used as a marker to detect cellular senescence[42]. Cells were seeded in four-well chamber slides at a density of 8000-10,000 cells. […] Three days later, the media was removed and cells were fixed with 2% formaldehyde/0.2% glutaraldehyde for 10 min at room temperature, washed with PBS, and then incubated with freshly prepared β-Gal staining solution (Cell Signaling) titrated to pH 6.0. Staining was optimal after incubating with the β-Gal solution at 37 °C for 16–18 h. After staining, the slides were washed twice with PBS, once with absolute methanol, and then mounted with 50% glycerol/PBS. The percentage of β-galactosidase-positive cells were counted with ImageJ using the Cell Counter plugin. A total of nine images containing 100–300 cells were scored to determine the percentages of positive cells.

AR-V7 = AR-V7 (Homo sapiens, UniProt P10275); experiment: Transcriptional reporter assay for AR-V7 (V7BS3-luciferase) in LNCaP cells; details: enzalutamide 10 µM, EPI-002 25 µM, juglone 20 µM, ATRA 10 µM, 24 h
Sequence of AR-V7 (P10275 1-644 isoform P10275-3): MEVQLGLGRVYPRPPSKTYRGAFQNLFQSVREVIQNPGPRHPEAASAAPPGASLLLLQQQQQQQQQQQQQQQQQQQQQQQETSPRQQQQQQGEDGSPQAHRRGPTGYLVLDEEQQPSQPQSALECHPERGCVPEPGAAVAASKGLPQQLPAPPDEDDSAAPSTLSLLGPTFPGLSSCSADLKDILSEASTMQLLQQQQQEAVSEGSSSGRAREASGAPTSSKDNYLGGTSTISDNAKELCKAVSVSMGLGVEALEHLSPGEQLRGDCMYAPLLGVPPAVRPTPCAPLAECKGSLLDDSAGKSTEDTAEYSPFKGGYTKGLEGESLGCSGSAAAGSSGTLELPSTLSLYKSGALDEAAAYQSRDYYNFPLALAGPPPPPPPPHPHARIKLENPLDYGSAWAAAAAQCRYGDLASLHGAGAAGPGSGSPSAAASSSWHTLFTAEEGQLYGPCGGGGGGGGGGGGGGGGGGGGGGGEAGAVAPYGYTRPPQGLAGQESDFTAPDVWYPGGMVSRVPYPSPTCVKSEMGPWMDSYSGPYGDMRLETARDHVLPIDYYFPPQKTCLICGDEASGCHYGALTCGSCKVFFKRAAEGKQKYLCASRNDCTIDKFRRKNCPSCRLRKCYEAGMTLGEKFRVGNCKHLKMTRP

inhibition of reporter activity at highest concentration (full-length AR; 40 µM of ralaniten): ~ 98%
fractional response (Fig. 5g) (full-length AR; EPI-002 20 μM): 0.8041 and 0.7145 and 0.7078 and 0.8391
fractional response (Fig. 5g) (full-length AR; EPI-002 40 μM): 0.9915 and 0.9757 and 0.9847 and 0.9439
effect on IL-6-induced transactivation of AR NTD (Gal4-ARN) ([1]; IL-6 50 ng/mL): both blocked
effect on forskolin-induced transactivation of AR NTD (Gal4-ARN) ([1]; forskolin 25 μM): both blocked
Structure (SMILES): CC(C)(c1ccc(OC[C@H](O)CO)cc1)c1ccc(OC[C@H](O)CCl)cc1 [ralaniten]
effect on proliferation of LN95 cells (LN95 cells [2]): attenuated the proliferation of LN95 cells
BrdU incorporation, PC-3 (Fig. 4c) (PC-3 cells): 0.683 and 1.048 and 0.96 and 1.348
BrdU incorporation, DU145 (Fig. 4d) (DU145 cells): 0.692 and 0.859 and 0.62
effect on colony formation (LN95 cells [3]): significantly reduced the number of colonies
pharmacokinetics in clinical testing [4]: poor pharmacokinetics
SA β-gal-positive cells (LN95 cells [5]): 31%
effect on AR-V7-induced V7BS3-luciferase reporter activity (AR-V7): decreased AR-V7-induced reporter activity
